Test results reported in patent US11370798B2 (Vertex Pharmaceuticals Incorporated, priority 2012, dated 2022).

System: HCT116 colorectal cancer cells
Assay: Cisplatin sensitization assay (96 h cell viability MTS);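 also: Test-compound concentration that lowers the Cisplatin IC50 by a set fold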
Type: cell-based
Settings: compound and Cisplatin added simultaneously, Cisplatin sensitization value
How it was run: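 Viability read by MTS (1 h at 37° C) after 96 h co-exposure at 37° C, 5% CO2. Test compound and cisplatin were dosed simultaneously in a full concentration matrix, each 2-fold serially diluted from 10 μM final; sensitization values binned in μM.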

Question: With Nc1nn2cc(F)cnc2c1C(=O)Nc1cncc(F)c1N1CCC(S(=O)(=O)N2CCN3CCC2CC3)CC1 [I-N-273, N-(4-(4-(1,4-diazabicyclo[3.2.2]nonan-4-ylsulfonyl)piperidin-1-yl)-5-fluoropyridin-3-yl)-2-amino-6-fluoropyrazolo[1,5-a]pyrimidine-3-carboxamide] as the molecule, how does the “Cisplatin Sensitization Assay” value read?
Answer: Its value is “+++ (Cisplatin sensitization value of <0.02 μM)”.

Question: For Nc1nn2cc(F)cnc2c1C(=O)Nc1cncc(F)c1N1CCN(C(=O)C2CCOC2)CC1 (centres unmarked) [I-N-274, 2-amino-6-fluoro-N-(5-fluoro-4-(4-(tetrahydrofuran-3-carbonyl)piperazin-1-yl)pyridin-3-yl)pyrazolo[1,5-a]pyrimidine-3-carboxamide], which “Cisplatin Sensitization Assay” value is on record?
Answer: The value was “+++ (Cisplatin sensitization value of <0.02 μM)”.

Question: For CC(=O)N1CCN(c2c(F)cncc2NC(=O)c2c(N)nn3cc(F)cnc23)CC1 [I-N-275, N-(4-(4-acetylpiperazin-1-yl)-5-fluoropyridin-3-yl)-2-amino-6-fluoropyrazolo[1,5-a]pyrimidine-3-carboxamide], which “Cisplatin Sensitization Assay” value is on record?
Answer: Its value is “+++ (Cisplatin sensitization value of <0.02 μM)”.

Question: Which “Cisplatin Sensitization Assay” value does the source give for Nc1nn2cc(F)cnc2c1C(=O)Nc1cncc(F)c1N1CCN(C(=O)C2CC2)CC1 [I-N-276, 2-amino-N-(4-(4-(cyclopropanecarbonyl)piperazin-1-yl)-5-fluoropyridin-3-yl)-6-fluoropyrazolo[1,5-a]pyrimidine-3-carboxamide] here?
Answer: Its value is “+++ (Cisplatin sensitization value of <0.02 μM)”.

Question: For Nc1nn2cc(F)cnc2c1C(=O)Nc1cncc(F)c1N1CCN2C(=O)CCCC2C1 (centres unmarked) [I-N-277, 2-amino-6-fluoro-N-(5-fluoro-4-(6-oxohexahydro-1H-pyrido[1,2-a]pyrazin-2(6H)-yl)pyridin-3-yl)pyrazolo[1,5-a]pyrimidine-3-carboxamide], which “Cisplatin Sensitization Assay” value is on record?
Answer: The value was “+++ (Cisplatin sensitization value of <0.02 μM)”.

Question: Nc1nn2cc(F)cnc2c1C(=O)Nc1cncc(F)c1N1CCN(C(=O)C2COC2)CC1 [I-N-278, 2-amino-6-fluoro-N-(5-fluoro-4-(4-(oxetane-3-carbonyl)piperazin-1-yl)pyridin-3-yl)pyrazolo[1,5-a]pyrimidine-3-carboxamide] was tested. Which “Cisplatin Sensitization Assay” value did it give?
Answer: Its value is “+++ (Cisplatin sensitization value of <0.02 μM)”.

Question: For Nc1nn2cc(F)cnc2c1C(=O)Nc1cncc(F)c1N1CCN2C(=O)CCC[C@H]2C1 [I-N-279, (S)-2-amino-6-fluoro-N-(5-fluoro-4-(6-oxohexahydro-1H-pyrido[1,2-a]pyrazin-2(6H)-yl)pyridin-3-yl)pyrazolo[1,5-a]pyrimidine-3-carboxamide], which “Cisplatin Sensitization Assay” value is on record?
Answer: The value was “+++ (Cisplatin sensitization value of <0.02 μM)”.

Question: For Nc1nn2cc(F)cnc2c1C(=O)Nc1cncc(F)c1N1CCN2C(=O)CCC[C@@H]2C1 [I-N-280, (R)-2-amino-6-fluoro-N-(5-fluoro-4-(6-oxohexahydro-1H-pyrido[1,2-a]pyrazin-2(6H)-yl)pyridin-3-yl)pyrazolo[1,5-a]pyrimidine-3-carboxamide], which “Cisplatin Sensitization Assay” value is on record?
Answer: The value was “+++ (Cisplatin sensitization value of <0.02 μM)”.

Question: Which “Cisplatin Sensitization Assay” value does the source give for Nc1nn2cc(F)cnc2c1C(=O)Nc1cncc(Cl)c1N1CCCC1 [I-N-281, 2-amino-N-(5-chloro-4-(pyrrolidin-1-yl)pyridin-3-yl)-6-fluoropyrazolo[1,5-a]pyrimidine-3-carboxamide] here?
Answer: Its value is “+++ (Cisplatin sensitization value of <0.02 μM)”.

Question: COCC1CCN(c2ccncc2NC(=O)c2c(N)nn3cc(F)cnc23)CC1 [I-N-282, 2-amino-6-fluoro-N-(4-(4-(methoxymethyl)piperidin-1-yl)pyridin-3-yl)pyrazolo[1,5-a]pyrimidine-3-carboxamide] was tested. Which “Cisplatin Sensitization Assay” value did it give?
Answer: Its value is “+++ (Cisplatin sensitization value of <0.02 μM)”.

Question: Which “Cisplatin Sensitization Assay” value does the source give for Cc1cncn1-c1ccncc1NC(=O)c1c(N)nn2cc(F)cnc12 [I-N-283, 2-amino-6-fluoro-N-(4-(5-methyl-1H-imidazol-1-yl)pyridin-3-yl)pyrazolo[1,5-a]pyrimidine-3-carboxamide] here?
Answer: Its value is “++ (Cisplatin sensitization value>0.02 μM but <0.2 μM)”.

Question: Which “Cisplatin Sensitization Assay” value does the source give for Nc1nn2cc(F)cnc2c1C(=O)Nc1cncc(Cl)c1N1CCC(O)C1 (centres unmarked) [I-N-284, 2-amino-N-(5-chloro-4-(3-hydroxypyrrolidin-1-yl)pyridin-3-yl)-6-fluoropyrazolo[1,5-a]pyrimidine-3-carboxamide] here?
Answer: Its value is “+++ (Cisplatin sensitization value of <0.02 μM)”.

Question: With N#C[C@@H]1CCN(c2c(Cl)cncc2NC(=O)c2c(N)nn3cc(F)cnc23)C1 [I-N-285, (R)-2-amino-N-(5-chloro-4-(3-cyanopyrrolidin-1-yl)pyridin-3-yl)-6-fluoropyrazolo[1,5-a]pyrimidine-3-carboxamide] as the molecule, how does the “Cisplatin Sensitization Assay” value read?
Answer: The value was “++ (Cisplatin sensitization value>0.02 μM but <0.2 μM)”.

Question: How did the “Cisplatin Sensitization Assay” value turn out when CN1CC2CN(c3c(Cl)cncc3NC(=O)c3c(N)nn4cc(F)cnc34)CC2C1 (centres unmarked) [I-N-286, 2-amino-N-(5-chloro-4-(5-methylhexahydropyrrolo[3,4-c]pyrrol-2(1H)-yl)pyridin-3-yl)-6-fluoropyrazolo[1,5-a]pyrimidine-3-carboxamide] was run?
Answer: The value was “++ (Cisplatin sensitization value>0.02 μM but <0.2 μM)”.

Question: With CS(=O)(=O)C1CCN(c2c(Cl)cncc2NC(=O)c2c(N)nn3cc(F)cnc23)C1 (centres unmarked) [I-N-287, 2-amino-N-(5-chloro-4-(3-(methylsulfonyl)pyrrolidin-1-yl)pyridin-3-yl)-6-fluoropyrazolo[1,5-a]pyrimidine-3-carboxamide] as the molecule, how does the “Cisplatin Sensitization Assay” value read?
Answer: The value was “+++ (Cisplatin sensitization value of <0.02 μM)”.

Question: How did the “Cisplatin Sensitization Assay” value turn out when Nc1nn2cc(F)cnc2c1C(=O)Nc1cncc(F)c1N1CCC(n2ccnc2)CC1 [I-N-288, N-(4-(4-(1H-imidazol-1-yl)piperidin-1-yl)-5-fluoropyridin-3-yl)-2-amino-6-fluoropyrazolo[1,5-a]pyrimidine-3-carboxamide] was run?
Answer: The value was “+++ (Cisplatin sensitization value of <0.02 μM)”.

Question: CN1CCN(C(=O)C2CCCN(c3c(F)cncc3NC(=O)c3c(N)nn4cc(F)cnc34)C2)CC1 (centres unmarked) [I-N-289, 2-amino-6-fluoro-N-(5-fluoro-4-(3-(4-methylpiperazine-1-carbonyl)piperidin-1-yl)pyridin-3-yl)pyrazolo[1,5-a]pyrimidine-3-carboxamide] was tested. Which “Cisplatin Sensitization Assay” value did it give?
Answer: The value was “++ (Cisplatin sensitization value>0.02 μM but <0.2 μM)”.

Question: With CN(C)C(=O)C1CCCN(c2ccncc2NC(=O)c2c(N)nn3cc(F)cnc23)C1 (centres unmarked) [I-N-290, 2-amino-N-(4-(3-(dimethylcarbamoyl)piperidin-1-yl)pyridin-3-yl)-6-fluoropyrazolo[1,5-a]pyrimidine-3-carboxamide] as the molecule, how does the “Cisplatin Sensitization Assay” value read?
Answer: The value was “++ (Cisplatin sensitization value>0.02 μM but <0.2 μM)”.

Question: How did the “Cisplatin Sensitization Assay” value turn out when CN1CC[C@H](Oc2ccncc2NC(=O)c2c(N)nn3cc(F)cnc23)C1 [I-O-1, (S)-2-amino-6-fluoro-N-(4-((1-methylpyrrolidin-3-yl)oxy)pyridin-3-yl)pyrazolo[1,5-a]pyrimidine-3-carboxamide] was run?
Answer: Its value is “+++ (Cisplatin sensitization value of <0.02 μM)”.

Question: CN(C)Cc1ccc(Oc2ccncc2NC(=O)c2c(N)nn3cc(F)cnc23)cn1 [I-O-3, 2-amino-N-(4-((6-((dimethylamino)methyl)pyridin-3-yl)oxy)pyridin-3-yl)-6-fluoropyrazolo[1,5-a]pyrimidine-3-carboxamide] was tested. Which “Cisplatin Sensitization Assay” value did it give?
Answer: The value was “++ (Cisplatin sensitization value>0.02 μM but <0.2 μM)”.

Question: For COc1ccncc1NC(=O)c1c(N)nn2cc(F)cnc12 [I-O-4, 2-amino-6-fluoro-N-(4-methoxypyridin-3-yl)pyrazolo[1,5-a]pyrimidine-3-carboxamide], which “Cisplatin Sensitization Assay” value is on record?
Answer: Its value is “++ (Cisplatin sensitization value>0.02 μM but <0.2 μM)”.

Question: Nc1nn2cc(F)cnc2c1C(=O)Nc1cnccc1O[C@H]1CN2CCC1CC2 [I-O-5, (R)-2-amino-6-fluoro-N-(4-(quinuclidin-3-yloxy)pyridin-3-yl)pyrazolo[1,5-a]pyrimidine-3-carboxamide] was tested. Which “Cisplatin Sensitization Assay” value did it give?
Answer: The value was “+++ (Cisplatin sensitization value of <0.02 μM)”.

Question: How did the “Cisplatin Sensitization Assay” value turn out when Nc1nn2cc(F)cnc2c1C(=O)Nc1cnccc1Oc1cccnc1 [I-O-7, 2-amino-6-fluoro-N-(4-(pyridin-3-yloxy)pyridin-3-yl)pyrazolo[1,5-a]pyrimidine-3-carboxamide] was run?
Answer: The value was “++ (Cisplatin sensitization value>0.02 μM but <0.2 μM)”.

Question: How did the “Cisplatin Sensitization Assay” value turn out when Nc1nn2cc(F)cnc2c1C(=O)Nc1cnccc1OC1CCC(C(=O)O)CC1 (centres unmarked) [I-O-8, 4-((3-(2-amino-6-fluoropyrazolo[1,5-a]pyrimidine-3-carboxamido)pyridin-4-yl)oxy)cyclohexanecarboxylic acid] was run?
Answer: Its value is “+ (Cisplatin sensitization value>0.2 μM but <5 μM)”.

Question: For Nc1nn2cc(F)cnc2c1C(=O)Nc1cnccc1O[C@H]1CCCN(C2COC2)C1 [I-O-9, (S)-2-amino-6-fluoro-N-(4-((1-(oxetan-3-yl)piperidin-3-yl)oxy)pyridin-3-yl)pyrazolo[1,5-a]pyrimidine-3-carboxamide], which “Cisplatin Sensitization Assay” value is on record?
Answer: Its value is “++ (Cisplatin sensitization value>0.02 μM but <0.2 μM)”.

Question: CN1CCC(Oc2ccncc2NC(=O)c2c(N)nn3cc(F)cnc23)CC1 [I-O-12, 2-amino-6-fluoro-N-(4-((1-methylpiperidin-4-yl)oxy)pyridin-3-yl)pyrazolo[1,5-a]pyrimidine-3-carboxamide] was tested. Which “Cisplatin Sensitization Assay” value did it give?
Answer: The value was “+++ (Cisplatin sensitization value of <0.02 μM)”.

Question: How did the “Cisplatin Sensitization Assay” value turn out when COC(=O)[C@H]1CC[C@H](Oc2ccncc2NC(=O)c2c(N)nn3cc(F)cnc23)CC1 [I-O-13, (1r,4r)-methyl 4-((3-(2-amino-6-fluoropyrazolo[1,5-a]pyrimidine-3-carboxamido)pyridin-4-yl)oxy)cyclohexanecarboxylate] was run?
Answer: The value was “+++ (Cisplatin sensitization value of <0.02 μM)”.

Question: Which “Cisplatin Sensitization Assay” value does the source give for CCOc1ccncc1NC(=O)c1c(N)nn2cc(F)cnc12 [I-O-14, 2-amino-N-(4-ethoxypyridin-3-yl)-6-fluoropyrazolo[1,5-a]pyrimidine-3-carboxamide] here?
Answer: The value was “+++ (Cisplatin sensitization value of <0.02 μM)”.

Question: Nc1nn2cc(F)cnc2c1C(=O)Nc1cnccc1O[C@H]1Cc2nccn2C1 [I-O-16, (S)-2-amino-N-(4-((6,7-dihydro-5H-pyrrolo[1,2-a]imidazol-6-yl)oxy)pyridin-3-yl)-6-fluoropyrazolo[1,5-a]pyrimidine-3-carboxamide] was tested. Which “Cisplatin Sensitization Assay” value did it give?
Answer: The value was “+++ (Cisplatin sensitization value of <0.02 μM)”.
